pIC50: −log10 of the molar value.
Tested on: MM.1S cells
Assay: Inhibitory effect on the proliferation of MM.1S, MTS cell viability test
Format: cell-based
Settings: Homo sapiens, MM1.S, 168 h, multiple myeloma MM.1S cells, 7 days incubation, read-out: Tumor cell inhibitory activity
Procedure: Method of tumor cell proliferation inhibition test: the inventors tested all the example compounds on hematologic tumor cells, multiple myeloma MMTs cell line and acute leukemia cell MV-4-11 cell line of some examples. The activity test method and results are as follows.
1. The Compound's Inhibitory Effect on the Proliferation of MM.1S, MTS Cell Viability Test:
MM.1S cells were cultured and collected with 1640 plus 10% fetal bovine serum. The cell concentration was diluted according to 7 days, and 180 ul cell suspension was added to each well of the 96-well cell plate to 20,000 cells. 20 ul of DMSO with a final concentration of 0.2% was added to the control wells. The compound was 5-fold diluted—from the 10 mM stock solution, and 20 ul was also added to each compound cell well (the final concentration of DMSO was 0.2%). The cells were placed in a 37° C., 5% CO2 incubator to incubate for 7 days. After the reaction solution was prepared according to the MTS kit (Promega, G5430), 20 μL was added to each well and incubated in a 37° C., 5% CO2 incubator for 3-4 h. Absorbance value at 490 nm was read with a microtiter plate, and 690 nm absorbance value was used as the background value. OD490-OD690 was used as the final initial data. The formula for calculating the inhibition rate of the compound is: inhibition rate=(ODDMSO-ODcompound)/(ODDMSO-Oblank)×100%. The compound's proliferation inhibition IC50 was fitted by Graph Pad Prism 5.0. The experiment was repeated three times, and the average and standard deviation was calculated according to the three parallel experiments.
Cell viability test results: **** represents cell viability IC50>20 μM, […] represents cell viability 1 μM<IC50<20 μM, ** represents cell viability 100 nM<IC50<1 μM, * represents cell viability IC50<100 nM.

| SMILES | pIC50 |
| --- | --- |
| N#CC1(c2ccccc2F)CCN(CCCOc2cccc3c2CN(C2CCC(=O)NC2=O)C3=O)CC1 (centres unmarked) [Example 61, 1-(3-((2-(2,6-dioxopiperidine-3-)-1-oxoisoindoline-4-)oxy)propyl)-4-(2-fluorophenyl)piperidine-4-carbonitrile] | 6.00 to 7.00 |
| C[C@]1(N2C(=O)c3cccc(OCCCN4CCC(C#N)(c5cccc(OC(F)(F)F)c5)CC4)c3C2=O)CCC(=O)NC1=O [Example 62, (S)-1-(3-((2-(3-methyl-2,6-dioxopiperidine-3-)-1,3-dioxoisoindoline-4-)oxy)propyl)-4-(3-(trifluoromethoxy)phenyl)piperidine-4-carbonitrile] | 4.70 to 6.00 |
| N#CC1(c2cccc(F)c2)CCN(CCCOc2cccc3c2CN(C2CCC(=O)NC2=O)C3=O)CC1 (centres unmarked) [Example 63, 1-(3-((2-(2,6-dioxopiperidine-3-)-1-oxoisoindoline-4-)oxy)propyl)-4-(3-fluorophenyl)piperidine-4-carbonitrile] | 6.00 to 7.00 |
| N#CC1(c2ccccc2Cl)CCN(CCOc2cccc3c2CN(C2CCC(=O)NC2=O)C3=O)CC1 (centres unmarked) [Example 64, 4-(2-chlorophenyl)-1-(2-((2-(2,6-dioxopiperidine-3-)-1-oxoisoindoline-4-)oxy)ethyl) piperidine-4-carbonitrile] | 6.00 to 7.00 |
| N#CC1(c2ccc(F)cc2)CCN(CCCOc2cccc3c2CN(C2CCC(=O)NC2=O)C3=O)CC1 (centres unmarked) [Example 65, 1-(3-((2-(2,6-dioxopiperidine-3-)-1-oxoisoindoline-4-)oxy)propyl)-4-(4-fluorophenyl)piperidine-4-carbonitrile] | 6.00 to 7.00 |
| N#CC1(c2cccc(OC(F)(F)F)c2)CCN(CCOc2cccc3c2CN(C2CCC(=O)NC2=O)C3=O)CC1 (centres unmarked) [Example 66, 1-(2-((2-(2,6-dioxopiperidine-3-)-1-oxoisoindoline-4-)oxy)ethyl)-4-(3-(trifluoromethoxy)phenyl)piperidine-4-carbonitrile] | 6.00 to 7.00 |
| N#Cc1cccc(C2(C#N)CCN(CCCOc3cccc4c3CN(C3CCC(=O)NC3=O)C4=O)CC2)c1 (centres unmarked) [Example 67, 4-(3-cyanophenyl)-1-(3-((2-(2,6-dioxopiperidine-3-)-1-oxoisoindoline-4-)oxy)propyl)piperidine-4-carbonitrile] | 6.00 to 7.00 |
| N#CC1(c2c(F)cccc2Cl)CCN(CCCOc2cccc3c2CN(C2CCC(=O)NC2=O)C3=O)CC1 (centres unmarked) [Example 68, 4-(2-chloro-6-fluorophenyl)-1-(3-((2-(2,6-dioxopiperidine-3-)-1-oxoisoindoline-4-)oxy)propyl)piperidine-4-carbonitrile] | > 7.00 |
| N#Cc1ccc(C2(C#N)CCN(CCCOc3cccc4c3CN(C3CCC(=O)NC3=O)C4=O)CC2)cc1 (centres unmarked) [Example 69, 4-(4-cyanophenyl)-1-(3-((2-(2,6-dioxopiperidine-3-)-1-oxoisoindoline-4-)oxy)propyl)piperidine-4-carbonitrile] | 6.00 to 7.00 |
| N#CC1(c2ccc(Cl)cc2Cl)CCN(CCCOc2cccc3c2CN(C2CCC(=O)NC2=O)C3=O)CC1 (centres unmarked) [Example 70, 4-(2,4-chlorophenyl)-1-(3-((2-(2,6-dioxopiperidine-3-)-1-oxoisoindoline-4-)oxy)propyl)piperidine-4-carbonitrile] | > 7.00 |
| N#CC1(c2cccc(OC(F)(F)F)c2)CCN(CCCOc2cccc3c2CN(C2CCC(=O)NC2=O)C3=O)CC1 (centres unmarked) [Example 71, 1-(3-((2-(2,6-dioxopiperidine-3-)-1-oxoisoindoline-4-)oxy)propyl)-4-(3-trifluoromethoxyphenyl)piperidine-4-carbonitrile] | > 7.00 |
| N#CC1(c2ccc(Cl)cc2F)CCN(CCCOc2cccc3c2CN(C2CCC(=O)NC2=O)C3=O)CC1 (centres unmarked) [Example 72, 4-(4-chloro-2-fluorophenyl)-1-(3-((2-(2,6-dioxopiperidine-3-)-1-oxoisoindoline-4-)oxy)propyl)piperidine-4-carbonitrile] | > 7.00 |
| N#CC1(c2ccc(OC(F)(F)F)cc2)CCN(CCCOc2cccc3c2CN(C2CCC(=O)NC2=O)C3=O)CC1 (centres unmarked) [Example 73, 1-(3-((2-(2,6-dioxopiperidine-3-)-1-oxoisoindoline-4-)oxy)propyl)-4-(4-trifluoromethoxyphenyl)piperidine-4-carbonitrile] | > 7.00 |
| N#CC1(c2ccc(F)cc2Cl)CCN(CCCOc2cccc3c2CN(C2CCC(=O)NC2=O)C3=O)CC1 (centres unmarked) [Example 74, 4-(2-chloro-4-fluorophenyl)-1-(3-((2-(2,6-dioxopiperidine-3-)-1-oxoisoindoline-4-)oxy)propyl)piperidine-4-carbonitrile] | > 7.00 |
| N#CC1(c2cccc(Cl)c2)CCN(CCCCOc2cccc3c2CN(C2CCC(=O)NC2=O)C3=O)CC1 (centres unmarked) [Example 75, 4-(3-chlorophenyl)-1-(4-((2-(2,6-dioxopiperidine-3-)-1-oxoisoindoline-4-)oxy)butyl)piperidine-4-carbonitrile] | 6.00 to 7.00 |
| N#CC1(c2c(Cl)cccc2Cl)CCN(CCCOc2cccc3c2CN(C2CCC(=O)NC2=O)C3=O)CC1 (centres unmarked) [Example 76, 4-(2,6-chlorophenyl)-1-(3-((2-(2,6-dioxopiperidine-3-)-1-oxoisoindoline-4-)oxy)propyl)piperidine-4-carbonitrile] | > 7.00 |
| N#CC1(c2ccc(Cl)cc2)CCN(CCCCOc2cccc3c2CN(C2CCC(=O)NC2=O)C3=O)CC1 (centres unmarked) [Example 77, 4-(4-chlorophenyl)-1-(4-((2-(2,6-dioxopiperidine-3-)-1-oxoisoindoline-4-)oxy)butyl)piperidine-4-carbonitrile] | 6.00 to 7.00 |
| N#CC1(c2ccccc2OC(F)(F)F)CCN(CCCOc2cccc3c2CN(C2CCC(=O)NC2=O)C3=O)CC1 (centres unmarked) [Example 78, 1-(3-((2-(2,6-dioxopiperidine-3-)-1-oxoisoindoline-4-)-oxy-)propyl)-4-(2-trifluoromethoxyphenyl)piperidine-4-carbonitrile] | > 7.00 |
| N#CC1(c2cccc(Cl)c2)CCN(CCCCCOc2cccc3c2CN(C2CCC(=O)NC2=O)C3=O)CC1 (centres unmarked) [Example 79, 4-(3-chlorophenyl)-1-(5-((2-(2,6-dioxopiperidine-3-)-1-oxoisoindoline-4-)oxy)pentyl)piperidine-4-carbonitrile] | > 7.00 |
| C[C@]1(N2Cc3c(OCCCN4CCC(C#N)(c5ccccc5Cl)CC4)cccc3C2=O)CCC(=O)NC1=O [Example 80, (S)-4-(2-chlorophenyl)-1-(3-((2-(3-methyl-2,6-dioxopiperidine-3-)-1-oxoisoindoline-4-)oxy)propyl)piperidine-4-carbonitrile] | 4.70 to 6.00 |
| N#CC1(c2ccc(Cl)cc2)CCN(CCCCCOc2cccc3c2CN(C2CCC(=O)NC2=O)C3=O)CC1 (centres unmarked) [Example 81, 4-(4-chlorophenyl)-1-(5-((2-(2,6-dioxopiperidine-3-)-1-oxoisoindoline-4-)oxy)pentyl) piperidine-4-carbonitrile] | > 7.00 |
| N#CC1(c2ccccc2Cl)CCN(C(=O)CCCOc2cccc3c2CN(C2CCC(=O)NC2=O)C3=O)CC1 (centres unmarked) [Example 82, 4-(2-chlorophenyl)-1-(4-((2-(2,6-dioxopiperidine-3-)-1-oxoisoindoline-4-)oxy)butyryl)piperidine-4-carbonitrile] | 6.00 to 7.00 |
| N#CC1(c2cccc(Cl)c2)CCN(C(=O)CCCOc2cccc3c2CN(C2CCC(=O)NC2=O)C3=O)CC1 (centres unmarked) [Example 83, 4-(3-chlorophenyl)-1-(4-((2-(2,6-dioxopiperidine-3-)-1-oxoisoindoline-4-)oxy)butyryl) piperidine-4-carbonitrile] | > 7.00 |
